Earlier results in US10794912B2 (priority 2017, dated 2020).

Settings: in vivo

C[C@@H]1Cc2c(Cl)cc(C(=O)N[C@@H](Cc3ccccc3)C(=O)O)c(O)c2C(=O)O1 [ochratoxin A]
time to death: 5 to 6 days
